Laboratory results: patent US20250327793A1, “METHODS OF IDENTIFYING COMPOUNDS THAT MODULATE LAUNDRY MALODOR, MOLDY MALODOR, OR SWEAT MALODOR” (Firmenich SA, priority 2017, published 2025)
pIC50: −log10 of the molar value. Counter-ions that a name gives are not always drawn.

Tests used:
[1] = target: T1, OR51E1 olfactory receptor (Homo sapiens, UniProt Q8TCB6, K299R); assay: Butyric acid olfactory receptor antagonist cell-based inhibitory dose-response assay
T1 construct: expressed in transfected cells
T1 sequence (Q8TCB6 2-318 K299R limits assumed): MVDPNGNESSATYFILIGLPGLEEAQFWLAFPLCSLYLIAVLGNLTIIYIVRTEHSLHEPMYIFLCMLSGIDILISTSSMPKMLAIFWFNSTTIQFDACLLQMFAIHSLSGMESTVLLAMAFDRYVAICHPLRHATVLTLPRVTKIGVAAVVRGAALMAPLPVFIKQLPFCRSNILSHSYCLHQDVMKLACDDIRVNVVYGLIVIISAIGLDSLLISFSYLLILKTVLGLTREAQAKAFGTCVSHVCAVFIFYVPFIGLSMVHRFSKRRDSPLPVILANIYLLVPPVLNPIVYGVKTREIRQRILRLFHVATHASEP

[2] = test system: human sensory panel; assay: Sensory evaluation of geonol earthy/moss odor in binary mixtures with antagonists; type: in vivo; settings: percentage of geonol malodor (earthy/moss odor) remaining in binary iso-intense mixture vs REF; * = statistically different from geonol alone
Source text: Sensory Evaluation: Five 16 oz glass jars containing either REF (geonol only), geonol only control, antagonist only, mixture of geonol and isointense antagonist, or mixture of geonol and low intensity antagonist were presented to the panelists (last four samples were randomized across panelists). The panelists were asked to familiarize themselves with the earthy/moss odor quality from the REF jar first, then rate the pleasantness, earthy/moss odor intensity and overall odor intensity of the next four samples on a 0-10 linear scale. The inter-stimulus interval between the samples was two minutes to avoid adaptation.

[3] = test system: T2, OR11A1 or OR2M3 olfactory receptor; assay: Geonol olfactory receptor antagonist cell-based inhibitory dose-response assay; parameters: species or system human; settings: Table 2; geonol induced receptor activity, geonol at EC50
T2 construct: fused on or other part: Possibly N-terminal FLAG, Rho and/or Lucy tags

[4] = Table 4, butyric acid at single activating concentration (EC94)
[5] = Table 5, butyric acid olfactory receptor antagonists, agonist concentration not given
[6] = Table 5, agonist concentration not given

Row | Molecule | Inhibition (%) ([1]; Table 4, butyric acid at EC94) | pIC50 [1, 4] | also measured
1 | CC(=O)OC1C(C)(C)CCCC12CC=C(C)CC2C (stereo not drawn) [(3,5,10,10-tetramethylspiro[5.5]undec-2-en-11-yl) acetate] | 104 | 4.15 | 
2 | isopropyl quinoline |  |  | % Remaining in human sensory tests [2]: 110%
3 | CC1CC2(CCCC(C)(C)C2O)CC1C (stereo not drawn) [2,3,9,9-tetramethylspiro[4.5]decan-10-ol] | 12 | 3.92 | 
4 | C[C@H]1CCCC2(CCCC[C@@H]2C)[C@@H]1O (single isomer, unassigned) [(4~{S},5~{R},6~{S},11~{S})-4,11-dimethylspiro[5.5]undecan-5-ol] | 54 | 4.11 | 
5 | COC1C(C)(C)CCC12CCCC2 (stereo not drawn) [4-methoxy-3,3-dimethylspiro[4.4]nonane] | 105 | 3.47 | 
6 | CC1CC(C)(C=NO)C2C[C@H]3CC[C@]12C3 (stereo partly drawn) [~{N}-[[(1~{S},7~{R})-2,4-dimethyl-4-tricyclo[5.2.1.0^{1,5}]decanyl]methylidene]hydroxylamine] |  |  | pIC50 [1, 5]: 4.05
7 | CC1=C(C)CC2(CCC(C)(C)C2=O)C1 [2,3,8,8-tetramethylspiro[4.4]non-2-en-9-one] | 10 | 3.70 | 
8 | CC1=C(C)CC2(CCCC(C)(C)C2O)C1 (stereo not drawn) [2,3,9,9-tetramethylspiro[4.5]dec-2-en-10-ol] | 16 | 4.10 | 
9 | C=C(C)CC1(CC(=C)C)CCCC(C)(C)C1=O [2,2-dimethyl-6,6-bis(2-methylprop-2-enyl)cyclohexan-1-one] | 103 | 4.33 | 
10 | CC(=O)OC(C1C(C)C=C(C)CC1C)C(C)(C)C (stereo not drawn) [[2,2-dimethyl-1-(2,4,6-trimethylcyclohex-3-en-l-yl)propyl] acetate] | 89 | 4.28 | 
11 | CC1=CCC2(CCCCC2O)C(C(C)C)C1 (stereo not drawn) [3-methyl-5-propan-2-ylspiro[5.5]undec-2-en-11-ol] | 144 | 3.44 | 
12 | CC(=O)C1(C)CC(C)C23CCC(CC12)C3 (stereo not drawn) [1-(2,4-dimethyl-4-tricyclo[5.2.1.0^{1,5}]decanyl)ethanone] |  |  | Inhibition (%) [1, 6]: 26%; pIC50 [1, 5]: 4.22
13 | CC(=O)OC1C(C)(C)CCCC12C(C)C=CCC2C (stereo not drawn) [(1,5,10,10-tetramethylspiro[5.5]undec-3-en-11-yl) acetate] | 72 | 4.14 | 
14 | CC(=O)OC(C)C1(C)CC(C)C23CCC(CC12)C3 (stereo not drawn) [1-(2,4-dimethyl-4-tricyclo[5.2.1.0^{1,5}]decanyl)ethyl acetate] |  |  | Inhibition (%) [1, 6]: 34%; pIC50 [1, 5]: 4.26
15 | CC(=O)OC(C1C(C)CC(C)CC1C)C(C)(C)C (stereo not drawn) [[2,2-dimethyl-1-(2,4,6-trimethylcyclohexyl)propyl] acetate] | 101 | 3.62 | 
16 | CCCCCC/C=C/C=O [nonylenic aldehyde] |  |  | % Inhibition [3]: 30%
17 | C=C1C(C)(C)CCCC12CC1(C)OC1(C)C2 (stereo not drawn) [1,1′,1′,5-tetramethyl-2′-methylidenespiro[6-oxabicyclo[3.1.0]hexane-3,3′-cyclohexane]] | 37 | 4.12 | 
18 | CC1C=CCC12CCCC(C)(C)C2=O (stereo not drawn) [4,9,9-trimethylspiro[4.5]dec-2-en-10-one] | 102 | 3.57 | 
19 | OCCc1ccccc1 [phenylethylol] |  |  | % Remaining in human sensory tests [2]: 58%
20 | CC(=NO)C1(C)C(C)C(C)[C@]23CC[C@H](CC12)C3 (stereo partly drawn) [~{N}-[1-[(1~{R},7~{R})-2,3,4-trimethyl-4-tricyclo[5.2.1.0^{1,5}]decanyl]ethylidene]hydroxylamine] |  |  | pIC50 [1, 5]: 4.10
21 | CC(=O)OC1C(C)(C)CCCC12CC(C)=C(C)C2 (stereo not drawn) [(2,3,9,9-tetramethylspiro[4.5]dec-2-en-10-yl) acetate] | 116 | < 3.22 | 
22 | C=C(C)CC1(CC(=C)C)CCCC(C)(C)C1O (stereo not drawn) [2,2-dimethyl-6,6-bis(2-methylprop-2-enyl)cyclohexan-1-ol] | 110 | 3.90 | 
23 | C=C(C)CC1(CC(=C)C)CCC(C)(C)C1O (stereo not drawn) [2,2-dimethyl-5,5-bis(2-methylprop-2-enyl)cyclopentan-1-ol] | 119 | 4.45 | 
24 | COC1C(C)(C)CCC12CC=CC2 (stereo not drawn) [9-methoxy-8,8-dimethylspiro[4.4]non-2-ene] | 100 | 3.62 | 
25 | CC(=O)OC1C(C)(C)CCCC12CC(C)C(C)C2 (stereo not drawn) [(2,3,9,9-tetramethylspiro[4.5]decan-10-yl) acetate] | 62 | 4.29 | 

Row | Molecule | Inhibition (%) ([1]; Table 4, butyric acid at EC94) | pIC50 [1, 4] | also measured
26 | CC1(C)CCCC2(CC=CC2)C1O (stereo not drawn) [9,9-dimethylspiro[4.5]dec-2-en-10-ol] | 91 | 4.36 | 
27 | CC1(C)CCCC2(CC=CC2)C1=O [9,9-dimethylspiro[4.5]dec-2-en-10-one] | 23 | 3.87 | 
28 | CC1=CC(C)C2(CCCC(C)(C)C2=O)C1 (stereo not drawn) [2,4,9,9-tetramethylspiro[4.5]dec-2-en-10-one] | 63 | 3.96 | 
29 | CC(=O)O[C@H]([C@H]1CCCC[C@@H]1C)C(C)(C)C (racemic) [[(1~{R})-2,2-dimethyl-1-[(1~{S},2~{S})-2-methylcyclohexyl]propyl] acetate] |  | 3.77 | 
30 | CC(=O)OC(C)C1CC(C)C23CCC(CC12)C3 (stereo not drawn) [1-(2-methyl-4-tricyclo[5.2.1.0^{1,5}]decanyl)ethyl acetate] |  |  | Inhibition (%) [1, 6]: 23%; pIC50 [1, 5]: 4.01
31 | CC(=NO)C1C(C)C(C)C23CCC(CC12)C3 (stereo not drawn) [~{N}-[1-[(1~{S},7~{R})-2,3-dimethyl-4-tricyclo[5.2.1.0^{1,5}]decanyl]ethylidene]hydroxylamine] |  |  | Inhibition (%) [1, 6]: 19%; pIC50 [1, 5]: 4.12
32 | CC1CCCCC12CCCCC2O (stereo not drawn) [11-methylspiro[5.5]undecan-5-ol] | 52 | 4.16 | 
33 | CC(=O)OC1C(C)(C)CCCC12CC(C)(C)C(C)(C)C2 (stereo not drawn) [(2,2,3,3,9,9-hexamethylspiro[4.5]decan-10-yl) acetate] | 39 | 3.37 | 
34 | CC1C(C)C23CCC(CC2C1(C)C=O)C3 (stereo not drawn) [2,3,4-trimethyltricyclo[5.2.1.0^{1,5}]decane-4-carbaldehyde] |  |  | Inhibition (%) [1, 6]: 28%; pIC50 [1, 5]: 3.57
35 | CC(=O)OC1C(C)(C)CCCC12CC=CC2 (stereo not drawn) [(9,9-dimethylspiro[4.5]dec-2-en-10-yl) acetate] | 32 | 4.04 | 
36 | CC(=O)OCCc1ccccc1 [phenyl ethyl acetate] |  |  | % Remaining in human sensory tests [2]: 47* %
37 | C=CCC1(OC)C(C)CCCC1C (stereo not drawn) [1-methoxy-2,6-dimethyl-1-prop-2-enylcyclohexane] | 61 | 4.00 | 
38 | CC(=O)[C@@]1(C)C(C)[C@H](C)[C@@]23CC[C@H](CC12)C3 (stereo partly drawn) [1-[(1~{S},2~{S},4~{S},7~{R})-2,3,4-trimethyl-4-tricyclo[5.2.1.0^{1,5}]decanyl]ethanone] |  |  | pIC50 [1, 5]: 4.49
39 | CC1CC=CCC12CCCC(C)(C)C2OC=O (stereo not drawn) [(5,10,10-trimethylspiro[5.5]undec-2-en-11-yl) formate] | 129 | 4.35 | 
40 | CC(=O)OCC1(C)C(C)C(C)C23CCC(CC12)C3 (stereo not drawn) [(2,3,4-trimethyl-4-tricyclo[5.2.1.0^{1,5}]decanyl)methyl acetate] |  |  | Inhibition (%) [1, 6]: 27%; pIC50 [1, 5]: 4.22
41 | CC(=O)OC1C(C)(C)CCC12CC=CC2 (stereo not drawn) [(8,8-dimethylspiro[4.4]non-2-en-9-yl) acetate] | 107 | 3.31 | 
42 | C=C(C)CC1(CC(=C)C)CCC(C)(C)C1=O [2,2-dimethyl-5,5-bis(2-methylprop-2-enyl)cyclopentan-1-one] | 82 | 4.29 | 
43 | CC(=O)OC1C(C)(C)CCCC12CC(C)=CC2C (stereo not drawn) [(2,4,9,9-tetramethylspiro[4.5]dec-2-en-10-yl) acetate] | 131 | 4.46 | 
44 | CC1C=CCC(C)C1C(O)C(C)(C)C (stereo not drawn) [1-(2,6-dimethylcyclohex-3-en-1-yl)-2,2-dimethylpropan-1-ol] | 31 | 3.49 | 
45 | CC1=C(C)CC2(CCCC(C)(C)C2OC=O)C1 (stereo not drawn) [(2,3,9,9-tetramethylspiro[4.5]dec-2-en-10-yl) formate] | 69 | 4.59 | 
46 | CC1=CC(C)C2(CCCC(C)(C)C2O)C1 (stereo not drawn) [2,4,9,9-tetramethylspiro[4.5]dec-2-en-10-ol] | 22 | 4.09 | 
47 | COC1C(C)(C)CCCC12CC=CC2 (stereo not drawn) [10-methoxy-9,9-dimethylspiro[4.5]dec-2-ene] | 33 | 3.92 | 
48 | C=CCC1(C(C)C=C)CCCC(C)(C)C1=O (stereo not drawn) [2-but-3-en-2-yl-6,6-dimethyl-2-prop-2-enylcyclohexan-1-one] | 115 | 4.12 | 
49 | CC(=O)OC1C(C)(C)CCCC12CC=CC2C (stereo not drawn) [(4,9,9-trimethylspiro[4.5]dec-2-en-10-yl) acetate] | 106 | 4.31 | 
